Reference: patent publication US20140106967A1, “AUXIN PLANT GROWTH REGULATORS” (The Governors of The University of Alberta, priority 2011, published 2014)

Test system: pea plants cv. 'Carneval'
Test: Growth chamber experiment 2, pea 'Carneval' sprayed with 4-ME-IAA: peduncle/pedicel growth and seed yield, with or without heat stress (Tables P3-P12)
Format: in vivo, Pisum sativum L.
Procedure: For growth chamber experiment, seeds of ‘Carneval’ were planted at an approximate depth of 2.5 cm in 3-L plastic pots (4 seeds per pot and thinned to 2 plants per pot after approximately 2 weeks) in 1:1 Sunshine #4 potting mix (Sun Gro Horticulture, Vancouver, Canada) and sand. The experiment was arranged in a completely randomized design and grown at the University of Alberta in a growth chamber set at 19° C./17° C. (day/night) with a 16/8-h photoperiod under cool-white fluorescent lights (54W/835/HO high fluorescent bulbs, Phillips, Holland; 350 μE m^2 s^−2). For the heat stress treatment, plants were placed in a separate growth chamber with a 16/8-h photoperiod under cool-white fluorescent lights (F54/15/835/HO high fluorescent bulbs, Phillips, Holland) for 4 days where the temperature was cycled over a 24 hr period as follows: 33° C. air temperature for 6 hours per day (between 11:00 and 17:00 hrs) for 4 days during the light cycle; the remainder of the light cycle was maintained at a 22° C. air temperature; the dark cycle was maintained at 19° C. After the 4 day heat treatment, the plants were returned to the same growth chamber they were originally grown in, where they were taken to maturity.
For experiment 2, aqueous 4-methyl-indole-3-acetic acid (4-ME-IAA) solutions at 1×10^−7, 1×10^−6, 1×10^−5, or 1×10^−4 M in 0.1% (v/v) Tween 80 or aqueous 0.1% (v/v) Tween 80 (control) were applied as a spray to the entire plant to cover when the first flowering node of the main stem was near or at anthesis. In addition to the application at the timing cited above, one application of 4-ME-IAA at 1×10^−6 M or 1×10^−5 M was made when the floral buds were tightly clustered inside the stipule leaves at the stem apex (floral buds not visible outside of stipule leaves; designated the ‘Early’ treatment). In the heat stress treatment, the hormone or control treatment application was completed 16 hrs prior to the initiation of the first heat-stress cycle. The length and diameter (measured mid-length) of the lower and upper peduncles and pedicels of the inflorescence with two pods (or the lower peduncle and pedicel if a single pod node) at the first, second, third and fourth flowering nodes of the main stem of pea plants were determined for hormone-treated and control plants. Standard error of the mean (SE) was calculated for the means of all data for a measure of statistical significance in comparing treatment means.

[1] = 1×10^−6 M, first flowering node, heat stress (33° C. 6 h/day, 4 days)
[2] = 1×10^−6 M, first flowering node, no heat stress
[3] = 1×10^−6 M, fourth flowering node, heat stress (33° C. 6 h/day, 4 days)
[4] = 1×10^−6 M, fourth flowering node, no heat stress
[5] = 1×10^−6 M, heat stress (33° C. 6 h/day, 4 days)
[6] = 1×10^−6 M, second flowering node, heat stress (33° C. 6 h/day, 4 days)
[7] = 1×10^−6 M, second flowering node, no heat stress
[8] = 1×10^−6 M, third flowering node, heat stress (33° C. 6 h/day, 4 days)
[9] = 1×10^−6 M, third flowering node, no heat stress
[10] = 1×10^−7 M, applied near or at anthesis, no heat stress
[11] = 1×10^−7 M, first flowering node, heat stress (33° C. 6 h/day, 4 days)
[12] = 1×10^−7 M, first flowering node, no heat stress
[13] = 1×10^−7 M, fourth flowering node, heat stress (33° C. 6 h/day, 4 days)
[14] = 1×10^−7 M, fourth flowering node, no heat stress
[15] = 1×10^−7 M, heat stress (33° C. 6 h/day, 4 days)
[16] = 1×10^−7 M, second flowering node, heat stress (33° C. 6 h/day, 4 days)
[17] = 1×10^−7 M, second flowering node, no heat stress
[18] = 1×10^−7 M, third flowering node, heat stress (33° C. 6 h/day, 4 days)
[19] = 1×10^−7 M, third flowering node, no heat stress
[20] = Early treatment (tight floral bud stage) 1×10^−5 M, no heat stress
[21] = Early treatment (tight floral bud stage) 1×10^−6 M, no heat stress

## Cc1cccc2[nH]cc(CC(=O)O)c12 [4-ME-IAA, 4-methyl-indole-3-acetic acid]
[1]
  Lower Peduncle diameter: 1.38 ± 0.08 mm
  Upper Pedicel Length: 8.29 ± 0.18 mm
  Upper Pedicel diameter: 1.43 ± 0.06 mm
  Upper Peduncle Length: 16.71 ± 1.55 mm
  Upper Peduncle diameter: 1.19 ± 0.07 mm
[2]
  Lower Pedicel Length: 9.40 ± 0.27 mm
  Lower Pedicel diameter: 1.70 ± 0.04 mm
  Lower Peduncle Length: 75.00 ± 4.00 mm
  Lower Peduncle diameter: 1.65 ± 0.03 mm
  Upper Pedicel Length: 9.40 ± 0.27 mm
  Upper Pedicel diameter: 1.54 ± 0.04 mm
  Upper Peduncle Length: 20.30 ± 1.54 mm
  Upper Peduncle diameter: 1.37 ± 0.05 mm
[3]
  Lower Pedicel Length: 7.40 ± 0.24 mm
  Lower Pedicel diameter: 1.49 ± 0.11 mm
  Lower Peduncle Length: 26.80 ± 4.55 mm
  Lower Peduncle diameter: 1.25 ± 0.06 mm
  Upper Pedicel Length: 8.00 mm
  Upper Pedicel diameter: 1.46 mm
  Upper Peduncle Length: 15.00 mm
  Upper Peduncle diameter: 1.33 mm
[4]
  Lower Pedicel Length: 8.80 ± 0.25 mm
  Lower Pedicel diameter: 1.34 ± 0.03 mm
  Lower Peduncle Length: 38.00 ± 3.63 mm
  Lower Peduncle diameter: 1.38 ± 0.05 mm
  Upper Pedicel Length: 8.33 ± 0.29 mm
  Upper Pedicel diameter: 1.24 ± 0.05 mm
  Upper Peduncle Length: 16.67 ± 0.69 mm
  Upper Peduncle diameter: 1.16 ± 0.03 mm
[5]
  Ratio of seed number on main stem to lateral stems: 2.0 ± 0.5
  Seed number plant: 46.8 ± 3.3
  Seed weight per per plant: 12.9 ± 0.9 g
  Weight per seed: 0.277 ± 0.005 g
[6]
  Lower Pedicel Length: 8.80 ± 0.36 mm
  Lower Pedicel diameter: 1.47 ± 0.05 mm
  Lower Peduncle Length: 47.10 ± 3.42 mm
  Lower Peduncle diameter: 1.28 ± 0.06 mm
  Upper Pedicel Length: 8.14 ± 0.14 mm
  Upper Pedicel diameter: 1.43 ± 0.04 mm
  Upper Peduncle Length: 16.86 ± 1.01 mm
  Upper Peduncle diameter: 1.20 ± 0.07 mm
[7]
  Lower Pedicel Length: 9.4 ± 0.27 mm
  Lower Pedicel diameter: 1.51 ± 0.04 mm
  Lower Peduncle Length: 58.20 ± 5.41 mm
  Lower Peduncle diameter: 1.51 ± 0.04 mm
  Upper Pedicel Length: 9.20 ± 0.33 mm
  Upper Pedicel diameter: 1.47 ± 0.04 mm
  Upper Peduncle Length: 19.00 ± 0.60 mm
  Upper Peduncle diameter: 1.26 ± 0.02 mm
[8]
  Lower Pedicel Length: 7.90 ± 0.28 mm
  Lower Pedicel diameter: 1.43 ± 0.05 mm
  Lower Peduncle Length: 34.50 ± 2.73 mm
  Lower Peduncle diameter: 1.33 ± 0.05 mm
  Upper Pedicel Length: 8.60 ± 0.24 mm
  Upper Pedicel diameter: 1.34 ± 0.04 mm
  Upper Peduncle Length: 15.80 ± 1.11 mm
  Upper Peduncle diameter: 1.17 ± 0.03 mm
[9]
  Lower Pedicel Length: 9.00 ± 0.30 mm
  Lower Pedicel diameter: 1.39 ± 0.04 mm
  Lower Peduncle Length: 45.90 ± 4.3 mm
  Lower Peduncle diameter: 1.49 ± 0.04 mm
  Upper Pedicel Length: 9.00 ± 0.29 mm
  Upper Pedicel diameter: 1.31 ± 0.04 mm
  Upper Peduncle Length: 18.00 ± 0.96 mm
  Upper Peduncle diameter: 1.17 ± 0.02 mm
[10]
  Ratio of seed number on main stem to lateral stems: 3.0 ± 0.4
  Seed number per plant: 63.5 ± 6.8
  Seed weight per plant: 15.5 ± 1.6 g
  Weight per seed: 0.245 ± 0.004 g
  increase in seed yield (seed weight per plant) vs control: 78%
[11]
  Lower Pedicel Length: 9.40 ± 0.34 mm
  Lower Pedicel diameter: 1.73 ± 0.04 mm
  Lower Peduncle Length: 68.40 ± 5.39 mm
  Lower Peduncle diameter: 1.72 ± 0.05 mm
  Upper Pedicel Length: 9.00 ± 0.37 mm
  Upper Pedicel diameter: 1.67 ± 0.06 mm
  Upper Peduncle Length: 18.11 ± 0.59 mm
  Upper Peduncle diameter: 1.45 ± 0.08 mm
[12]
  Lower Pedicel Length: 9.30 ± 0.26 mm
  Lower Pedicel diameter: 1.65 ± 0.04 mm
  Lower Peduncle Length: 67.10 ± 5.30 mm
  Lower Peduncle diameter: 1.59 ± 0.04 mm
  Upper Pedicel Length: 9.20 ± 0.20 mm
  Upper Pedicel diameter: 1.52 ± 0.03 mm
  Upper Peduncle Length: 19.80 ± 1.08 mm
  Upper Peduncle diameter: 1.27 ± 0.05 mm
[13]
  Lower Pedicel Length: 7.50 ± 0.56 mm
  Lower Pedicel diameter: 1.49 ± 0.05 mm
  Lower Peduncle Length: 38.67 ± 3.18 mm
  Lower Peduncle diameter: 1.58 ± 0.06 mm
  Upper Pedicel Length: 8.00 ± 0.58 mm
  Upper Pedicel diameter: 1.39 ± 0.15 mm
  Upper Peduncle Length: 17.00 ± 1.00 mm
  Upper Peduncle diameter: 1.30 ± 0.06 mm
[14]
  Lower Pedicel Length: 9.57 ± 0.37 mm
  Lower Pedicel diameter: 1.37 ± 0.03 mm
  Lower Peduncle Length: 44.00 ± 3.22 mm
  Lower Peduncle diameter: 1.37 ± 0.03 mm
  Upper Pedicel Length: 8.86 ± 0.55 mm
  Upper Pedicel diameter: 1.25 ± 0.04 mm
  Upper Peduncle Length: 18.57 ± 0.61 mm
  Upper Peduncle diameter: 1.12 ± 0.03 mm
[15]
  Ratio of seed number on main stem to lateral stems: 1.2 ± 0.2
  Seed number plant: 55.9 ± 5.9
  Seed weight per per plant: 15.3 ± 1.7 g
  Weight per seed: 0.273 ± 0.010 g
1×10^−7 M, mild heat stress
  increase in seed number per plant over control: 30%
  increase in seed weight per plant over control: 29%
[16]
  Lower Pedicel Length: 8.78 ± 0.28 mm
  Lower Pedicel diameter: 1.69 ± 0.06 mm
  Lower Peduncle Length: 62.00 ± 2.88 mm
  Lower Peduncle diameter: 1.69 ± 0.05 mm
  Upper Pedicel Length: 8.50 ± 0.22 mm
  Upper Pedicel diameter: 1.55 ± 0.07 mm
  Upper Peduncle Length: 17.00 ± 0.73 mm
  Upper Peduncle diameter: 1.41 ± 0.05 mm
[17]
  Lower Pedicel Length: 9.3 ± 0.30 mm
  Lower Pedicel diameter: 1.57 ± 0.05 mm
  Lower Peduncle Length: 55.80 ± 4.61 mm
  Lower Peduncle diameter: 1.57 ± 0.03 mm
  Upper Pedicel Length: 9.20 ± 0.29 mm
  Upper Pedicel diameter: 1.48 ± 0.04 mm
  Upper Peduncle Length: 19.00 ± 0.76 mm
  Upper Peduncle diameter: 1.25 ± 0.02 mm
[18]
  Lower Pedicel Length: 8.13 ± 0.40 mm
  Lower Pedicel diameter: 1.70 ± 0.06 mm
  Lower Peduncle Length: 46.13 ± 2.75 mm
  Lower Peduncle diameter: 1.61 ± 0.06 mm
  Upper Pedicel Length: 8.20 ± 0.37 mm
  Upper Pedicel diameter: 1.46 ± 0.11 mm
  Upper Peduncle Length: 18.60 ± 0.98 mm
  Upper Peduncle diameter: 1.31 ± 0.07 mm
[19]
  Lower Pedicel Length: 9.44 ± 0.18 mm
  Lower Pedicel diameter: 1.46 ± 0.04 mm
  Lower Peduncle Length: 48.44 ± 2.5 mm
  Lower Peduncle diameter: 1.42 ± 0.05 mm
  Upper Pedicel Length: 9.00 ± 0.33 mm
  Upper Pedicel diameter: 1.26 ± 0.05 mm
  Upper Peduncle Length: 18.38 ± 1.10 mm
  Upper Peduncle diameter: 1.07 ± 0.03 mm
1×10^−7 to 1×10^−4 M, no heat stress, control 10%
  number of inflorescences with two pods at the fourth flowering node: 70-90 % of the plants
1×10^−7 to 1×10^−4 M, no heat stress, control 20%
  number of inflorescences with 2 pods at the third flowering node: 80-100 % of the plants
'Early' treatment 1×10^−6 M
  increase in seed yield vs control: 109%
[20]
  Ratio of seed number on main stem to lateral stems: 1.5 ± 0.2
  Seed number per plant: 64.8 ± 5.2
  Seed weight per plant: 16.2 ± 1.3 g
  Weight per seed: 0.252 ± 0.006 g
[21]
  Ratio of seed number on main stem to lateral stems: 1.6 ± 0.1
  Seed number per plant: 73.8 ± 5.9
  Seed weight per plant: 18.2 ± 1.4 g
  Weight per seed: 0.248 ± 0.006 g
